The supplement of paper PMC3974653
Structures can show the parent of a compound that is named as a salt.

System: MTT (mouse pheochromocytoma)
Assay: IC50 of cell viability (ATP content)
Conditions: (24 or 48 h)
How it was run: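 The IC50 was fitted with a four-parameter logistic equation to normalised CellTiter-Glo ATP luminescence from MTT mouse pheochromocytoma cells. These cells, in white 1536-well plates, had been treated for 24 or 48 hrs with library compounds at 8 final concentrations between 0.5 nM and 46 µM, and luminescence was read after 15 minutes. Positive-control wells served as 100% and DMSO wells as 0%.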

Row | SMILES | IC50 of cell viability [µM]
1 | Nc1nc(/C(=C/CC(=O)O)C(=O)NC2C(=O)N3C(C(=O)O)=CCSC23)cs1 (stereo not drawn) [CEFTIBUTEN] | > 46
2 | CO/N=C(/C(=O)N[C@@H]1C(=O)N2C(C(=O)O)=C(CSC(=O)c3ccco3)CSC12)c1csc(N)n1 (stereo partly drawn) [CEFTIOFUR CRYSTALLINE FREE ACID] | > 46
3 | CO/N=C(/C(=O)N[C@@H]1C(=O)N2C(C(=O)[O-])=CCS[C@H]12)c1csc(N)n1 [CEFTIZOXIME SODIUM] | > 46
4 | CO/N=C(/C(=O)NC1C(=O)N2C(C(=O)[O-])=C(CSc3nc(=O)c([O-])nn3C)CSC12)c1csc(N)n1.O.O.O.[Na+].[Na+] (stereo not drawn) [CEFTRIAXONE SODIUM TRIHYDRATE] | > 46
5 | CO/N=C(/C(=O)N[C@@H]1C(=O)N2C(C(=O)OC(C)OC(C)=O)=C(COC(N)=O)CS[C@H]12)c1ccco1 (stereo partly drawn) [CEFUROXIME AXETIL] | > 46
6 | CCN(CC)C(=O)Nc1ccc(OC[C@H](O)CNC(C)(C)C)c(C(C)=O)c1 [CELIPROLOL HYDROCHLORIDE] | > 46
7 | OCC1O[C@H](O[C@H]2C(O)C(O)C(O)O[C@@H]2CO)C(O)C(O)C1O (stereo partly drawn) [CELLOBIOSE (D[+])] | > 46
8 | [O-]C(=O)C/1=C(CSC2C(NC(=O)CC3=CC=CS3)C(=O)N12)\C[N+]4=CC=CC=C4 (stereo not drawn) [CEPHALORIDINE] | > 46
9 | COc1ccc2cc1Oc1ccc(cc1)CC1c3c(cc4c(c3Oc3cc5c(cc3OC)CCN(C)C5C2)OCO4)CCN1C (stereo not drawn) [CEPHARANTHINE] | > 46
10 | COCc1c(C(C)C)nc(C(C)C)c(/C=C/[C@@H](O)C[C@@H](O)CC(=O)[O-])c1-c1ccc(F)cc1 [CERIVASTATIN SODIUM] | > 46
11 | CCOC(=O)OCC/C(SC(=O)OCC)=C(\C)N(C=O)Cc1cnc(C)nc1N [CETOTIAMINE HYDROCHLORIDE] | > 46
12 | CCCCCCCCCCCCCCCCO [CETYL ALCOHOL] | > 46
13 | O=[S+]([O-])(O)c1cc(I)c(O)c2ncccc12 [CHINIOFONUM] | > 46
14 | CN(C)CC[C@@](O)(c1ccccc1)c1ccccc1Cl [CHLOPHEDIANOL HYDROCHLORIDE] | > 46
15 | OC(O)C(Cl)(Cl)Cl [CHLORAL HYDRATE] | > 46
16 | OC[C@@H](O)[C@H]1O[C@@H]2OC(C(Cl)(Cl)Cl)O[C@H]2[C@H]1O (stereo partly drawn) [CHLORALOSUM] | > 46
17 | OCC(O)[C@H]1O[C@@H]2O[C@H](C(Cl)(Cl)Cl)O[C@@H]2[C@H]1O (stereo partly drawn) [CHLORALOSUM] | > 46
18 | O=C(O)CCCc1ccc(N(CCCl)CCCl)cc1 [CHLORAMBUCIL] | > 46
19 | O=C(NC(CO)C(O)c1ccc([N+](=O)[O-])cc1)C(Cl)Cl (stereo not drawn) [CHLORAMPHENICOL] | > 46
20 | CNC1=C[N+]([O-])=C(c2ccccc2)c2cc(Cl)ccc2N1 [CHLORDIAZEPOXIDE] | > 46
21 | C[N+](C)(C)CC[N+]1(C)Cc2c(Cl)c(Cl)c(Cl)c(Cl)c2C1 [CHLORISONDAMINE] | > 46
22 | Cc1ncsc1CCCl [CHLORMETHIAZOLE] | > 46
23 | CN1C(=O)CC[S+](=O)([O-])C1c1ccc(Cl)cc1 (stereo not drawn) [CHLORMEZANONE] | > 46

Row | SMILES | IC50 of cell viability [µM]
24 | Cc1ccc(Cl)c(O)c1 [CHLORO-M-CRESOL] | > 46
25 | CC(C)(O)C(Cl)(Cl)Cl [CHLOROBUTANOL] | > 46
26 | CC[NH+](CC)CCOC(=O)c1ccc(N)cc1Cl [CHLOROPROCAINE HYDROCHLORIDE] | > 46
27 | Cc1cc(O)c(C(C)C)cc1Cl [CHLOROTHYMOL] | > 46
28 | C=C1CC[C@H](O)C/C1=C/C=C1\CCC[C@]2(C)[C@@H]([C@H](C)CCCC(C)C)CC[C@@H]12 [CHOLECALCIFEROL] | > 46
29 | CC(C)CCC[C@@H](C)[C@H]1CC[C@H]2[C@@H]3CC=C4C[C@@H](O)CC[C@]4(C)[C@H]3CC[C@]12C [CHOLESTEROL] | > 46
30 | O=C(O)c1ccccn1 [CHROMIUM PICOLINATE] | > 46
31 | OC(=O)C/1=C/C(=O)C2=C(O1)C=CC=C2 [CHROMOCARB] | > 46
32 | COC(C(=O)C(O)C(C)O)C1Cc2cc3cc(OC4CC(OC5CC(O)C(OC)C(C)O5)C(OC(C)=O)C(C)O4)c(C)c(O)c3c(O)c2C(=O)C1OC1CC(OC2CC(OC3CC(C)(O)C(OC(C)=O)C(C)O3)C(O)C(C)O2)C(O)C(C)O1 (stereo not drawn) [CHROMOMYCIN A3] | > 46
33 | Nc1c(/N=N/c2ccc(-c3ccc(/N=N/c4cc(S(=O)(=O)[O-])c5ccccc5c4N)cc3)cc2)cc(S(=O)(=O)[O-])c2ccccc12 [CI DIRECT RED 28] | > 46
34 | O=C(NOCC1CC1)c1ccc(F)c(F)c1Nc1ccc(I)cc1Cl [CI-1040] | > 46
35 | CC(C)C(=O)OCC(=O)[C@@]12OC(C3CCCCC3)O[C@@H]1CC1C3CCC4=CC(=O)C=C[C@]4(C)C3[C@@H](O)C[C@@]12C (stereo partly drawn) [CICLESONIDE] | > 46
36 | NC/1=N/C(=O)N(C[C@@H](CO)OC[P](O)(O)=O)/C=C1 [CIDOFOVIR] | > 46
37 | CC1(C)CC1C(=O)N/C(=C/CCCCSCC(N)C(=O)[O][Na])C(=O)O (stereo not drawn) [CILASTATIN SODIUM] | > 46
38 | CC1(C)C[C@@H]1C(=O)N/C(=C\CCCCSC[C@H](N)C(=O)O)C(=O)O [CILASTATIN SODIUM] | > 46
39 | COc1ccc([C@]2(C#N)CC[C@H](C(=O)O)CC2)cc1OC1CCCC1 [CILOMILAST] | > 46
40 | O=C1CCc2cc(OCCCCc3nnnn3C3CCCCC3)ccc2N1 [CILOSTAZOL] | > 46
41 | CC(C)NCC(O)c1ccc(N)c(C#N)c1 (stereo not drawn) [CIMATEROL] | > 46
42 | CCC(CC)(CC(=O)Nc1cccc(/C=C/c2nc(C3CCC3)cs2)c1)C(=O)O [CINALUKASTUM] | > 46
43 | CN(C)CCCSc1ccccc1NC(=O)/C=C/c1ccccc1 [CINANSERIN] | > 46
44 | O=C(O)c1cc(-c2ccccc2)nc2ccccc12 [CINCHOPHENUM] | > 46
45 | COc1cc(/C=C/C(=O)N2CCN(CC(=O)N3CCCC3)CC2)cc(OC)c1OC [CINEPAZIDE MALEATE] | > 46
46 | O=C/C=C/c1ccccc1 [CINNAMALDEHYDE] | > 46

Row | SMILES | IC50 of cell viability [µM]
47 | O=C(O)/C=C/c1ccccc1 [CINNAMIC ACID] | > 46
48 | CCNC(=O)/C=C/c1cccc(Br)c1 [CINROMIDUM] | > 46
49 | C1C\N=C(\COC2=C(C=CC=C2)C3CC3)N1 [CIRAZOLINE] | > 46
50 | CCC1OC(=O)C(C)[C@@H](O[C@H]2C[C@@](C)(OC)C(O)C(C)O2)C(C)[C@@H](O[C@@H]2OC(C)CC(N(C)C)C2O)[C@@](C)(OC)CC(C)C(=O)[C@@H](C)C(O)[C@]1(C)O (stereo partly drawn) [CLARITHROMYCIN] | > 46
51 | O=C(O)C1/C(=C/CO)OC2CC(=O)N21.[Li] (stereo not drawn) [CLAVULANATE LITHIUM] | > 46
52 | CC(C)(C)NCC(O)c1cc(Cl)c(N)c(Cl)c1 (stereo not drawn) [CLENBUTEROL] | > 46
53 | CCC[C@H]1C[C@H](C(=O)NC(C(C)Cl)C2O[C@@H](SC)C(OP(=O)(O)O)[C@@H](O)[C@@H]2O)N(C)C1 (stereo partly drawn) [CLINDAMYCIN PO4] | > 46
54 | CCC(C)(Oc1ccc(C2(c3ccc(OC(C)(CC)C(=O)O)cc3)CCCCC2)cc1)C(=O)O (stereo not drawn) [CLINOFIBRATE] | > 46
55 | CN1C(=O)CC(=O)N(c2ccccc2)c2cc(Cl)ccc21 [CLOBAZAM] | > 46
56 | CC(Cc1ccccc1)NCc1ccccc1Cl (stereo not drawn) [CLOBENZOREX] | > 46
57 | CCCC(=O)O[C@]1(C(=O)CCl)C(C)CC2C3CCC4=CC(=O)C=CC4(C)[C@@]3(F)C(=O)CC21C (stereo partly drawn) [CLOBETASONE BUTYRATE] | > 46
58 | CC(CN(C)C)C(C)(O)Cc1ccc(Cl)cc1 (stereo not drawn) [CLOBUTINOL HYDROCHLORIDE] | > 46
59 | CCOP(=O)(OCC)O/C(=C/Cl)c1ccc(Cl)cc1Cl [CLOFENVINFOSUM] | > 46
60 | CCN(CC)CCNC(=O)COc1ccc(Cl)cc1 [CLOFEXAMIDUM] | > 46
61 | CC(C)(C)CC(C)(C)c1ccc(O)c(Cc2ccc(Cl)cc2Cl)c1 [CLOFOCTOL] | > 46
62 | CN(C)CCCN1c2ccccc2CCc2ccc(Cl)cc21 [CLOMIPRAMINE] | > 46
63 | Clc1cccc(Cl)c1N=C1NCCN1 [CLONIDINE] | > 46
64 | Cc1c(Cl)cccc1Nc1ncccc1C(=O)O [CLONIXINUM] | > 46
65 | COC(=O)C(c1ccccc1Cl)N1CCc2sccc2C1 (stereo not drawn) [CLOPIDOGREL BISULFATE] | > 46
66 | Cc1nc(C)c(Cl)c(O)c1Cl [CLOPIDOL] | > 46
67 | O=C([O-])CCC/C=C\C[C@@H]1[C@@H](/C=C/[C@@H](O)COc2cccc(Cl)c2)[C@H](O)C[C@@H]1O [CLOPROSTENOL SODIUM] | > 46
68 | CCOC(=O)COC1=C(Cl)C2=C(C=C1)\C(=C(CCN(CC)CC)/C(=O)O2)C [CLORICROMENUM] | > 46
